# According to patent US5576296A, “Galanin antagonist” (priority 1991, dated 1996):
# System: scopolamine-induced release of ACh
# Test: Microdialysis: scopolamine-induced release of ACh in vivo from rat ventral hippocampus
# Details: scopolamine 0.3 mg/kg s.c. alone; peak (second) 20 min fraction; n=2
# Description: 2) Galanin inhibits acetylcholine release, measured according to Fisone G., et al (Proc. Natl. Acad. Sci. vol 84, 1987, 7339-7343). By using substantially the same procedure as the cited Fisone G., et al, a peptide according to the invention, M15, is now shown to counteract the inhibitory effects of galanin on the scopolamine-induced release of acetylcholine in vivo.
# Surgery and basic methodology. Experiments were carried out with female CD-COBS (Charles River, Como, Italy) rats, weighing 200-260 g. Animals were anesthetized with equitensin (1% pentobarbital, 4% chloral hydrate). […] The microdialysis probe extended 3 mm beyond the end of the guide cannula; it was perfused at a constant rate of 2 μl (min with Ringer's solution (NaCl, 147 mM; CaCl2, 2.2 mM and KCl, 4.0 mM), containing 10 μM physostigmine sulfate and adjusted to pH 7.0 with NaOH. The initial 40 min perfusate was discarded. Thereafter, perfusates were collected every 20 min during a total perfusion period of 260 min. At the end of the collection period, the samples were immediately frozen on solid CO2 and lyophilized. Acetylcholine (Ach) content was quantified by a specific radioenzymatic method described in detail by Consolo S., et al. (J. Neurochem. […]
structure (smiles),measurement,value
CN1[C@@H]2C[C@@H](OC(=O)[C@H](CO)c3ccccc3)C[C@H]1[C@@H]1O[C@@H]12 [Scopolamine],ACh release,13.1 pmol
